Source: ChEMBL document CHEMBL4393697, “Lipophilic efficient phenylthiazoles with potent undecaprenyl pyrophosphatase inhibitory activity” (Eur J Med Chem, 2019)
Converted amounts (≈) assume the structure as drawn. The source made the active and inactive calls. No cut-off for these calls is given here.

Columns and labels:
[1] = test system: Listeria monocytogenes; experiment: Bactericidal activity against Listeria monocytogenes ATCC 19111 assessed as reduction in bacterial cell growth incubated for 18 to 20 hrs followed by re-plating on tryptic soy agar plates at 37 degC for 18 hrs by broth microdilution assay; assay type: functional
[2] = test system: Staphylococcus aureus; experiment: Bactericidal activity against Staphylococcus aureus NRS107 assessed as reduction in bacterial cell growth incubated for 18 to 20 hrs followed by re-plating on tryptic soy agar plates at 37 degC for 18 hrs by broth microdilution assay; assay type: functional
[3] = test system: Staphylococcus aureus; experiment: Antibacterial activity against methicillin resistant Staphylococcus aureus USA400 assessed as reduction in bacterial cell growth incubated for 18 to 20 hrs by broth microdilution method; assay type: functional
[4] = test system: Staphylococcus epidermidis; experiment: Bactericidal activity against methicillin resistant Staphylococcus epidermidis NRS101 assessed as reduction in bacterial cell growth incubated for 18 to 20 hrs followed by re-plating on tryptic soy agar plates at 37 degC for 18 hrs by broth microdilution assay; assay type: functional
[5] = test system: Staphylococcus aureus; experiment: Antibacterial activity against intracellular methicillin resistant Staphylococcus aureus USA400 infected in mouse J774 cells assessed as log10 reduction of viable bacterial cells incubated for 24 hrs followed by re-plating on tryptic soy agar plates at 37 degC for 18 to 22 hrs by broth microdilution assay; assay type: functional
[6] = Solubility of compound in PBS after 2 hrs by turbidity based absorbance analysis; assay type: physicochemical
[7] = test system: Listeria monocytogenes; experiment: Antibacterial activity against Listeria monocytogenes ATCC 19111 assessed as reduction in bacterial cell growth incubated for 18 to 20 hrs by broth microdilution method; assay type: functional
[8] = test system: Klebsiella pneumoniae; experiment: Bactericidal activity against Klebsiella pneumoniae BAA-1706 assessed as reduction in bacterial cell growth incubated for 18 to 20 hrs followed by re-plating on tryptic soy agar plates at 37 degC for 18 hrs by broth microdilution assay; assay type: functional
[9] = test system: Enterococcus faecalis; experiment: Bactericidal activity against vancomycin resistant Enterococcus faecalis ATCC 51299 assessed as reduction in bacterial cell growth incubated for 18 to 20 hrs followed by re-plating on tryptic soy agar plates at 37 degC for 18 hrs by broth microdilution assay; assay type: functional
[10] = test system: Enterococcus faecalis; experiment: Antibacterial activity against vancomycin resistant Enterococcus faecalis ATCC 51299 assessed as reduction in bacterial cell growth incubated for 18 to 20 hrs by broth microdilution method; assay type: functional
[11] = test system: Klebsiella pneumoniae; experiment: Antibacterial activity against Klebsiella pneumoniae BAA-1706 assessed as reduction in bacterial cell growth incubated for 18 to 20 hrs by broth microdilution method; assay type: functional
[12] = test system: Streptococcus pneumoniae; experiment: Bactericidal activity against Methicillin resistant Streptococcus pneumoniae ATCC 700677 assessed as reduction in bacterial cell growth incubated for 18 to 20 hrs followed by re-plating on tryptic soy agar plates at 37 degC for 18 hrs by broth microdilution assay; assay type: functional
[13] = test system: Staphylococcus aureus; experiment: Bactericidal activity against methicillin-resistant Staphylococcus aureus USA300 assessed as reduction in bacterial cell growth incubated for 18 to 20 hrs followed by re-plating on tryptic soy agar plates at 37 degC for 18 hrs by broth microdilution assay; assay type: functional
[14] = test system: Pseudomonas aeruginosa; experiment: Bactericidal activity against Pseudomonas aeruginosa ATCC 15442 assessed as reduction in bacterial cell growth incubated for 18 to 20 hrs followed by re-plating on tryptic soy agar plates at 37 degC for 18 hrs by broth microdilution assay; assay type: functional
[15] = test system: Staphylococcus aureus; experiment: Antibacterial activity against methicillin resistant Staphylococcus aureus NRS119 assessed as reduction in bacterial cell growth incubated for 18 to 20 hrs by broth microdilution method; assay type: functional
[16] = test system: Acinetobacter baumannii; experiment: Antibacterial activity against Acinetobacter baumannii ATCC 19606 assessed as reduction in bacterial cell growth incubated for 18 to 20 hrs by broth microdilution method; assay type: functional
[17] = test system: Staphylococcus aureus; experiment: Antibacterial activity against Staphylococcus aureus ATCC 6538 assessed as reduction in bacterial cell growth incubated for 18 to 20 hrs by broth microdilution method; assay type: functional
[18] = test system: Streptococcus pneumoniae; experiment: Antibacterial activity against Cephalosporin resistant Streptococcus pneumoniae ATCC 51916 assessed as reduction in bacterial cell growth incubated for 18 to 20 hrs by broth microdilution method; assay type: functional
[19] = test system: Escherichia coli; experiment: Antibacterial activity against Escherichia coli BW25113 assessed as reduction in bacterial cell growth incubated for 18 to 20 hrs by broth microdilution method; assay type: functional
[20] = test system: Staphylococcus aureus; experiment: Bactericidal activity against vancomycin resistant Staphylococcus aureus VRS10 assessed as reduction in bacterial cell growth incubated for 18 to 20 hrs followed by re-plating on tryptic soy agar plates at 37 degC for 18 hrs by broth microdilution assay; assay type: functional
[21] = test system: Escherichia coli; experiment: Antibacterial activity against Escherichia coli JW55031 harboring deltatolC mutant assessed as reduction in bacterial cell growth incubated for 18 to 20 hrs by broth microdilution method; assay type: functional
[22] = test system: Staphylococcus aureus; experiment: Bactericidal activity against vancomycin resistant Staphylococcus aureus VRS11a assessed as reduction in bacterial cell growth incubated for 18 to 20 hrs followed by re-plating on tryptic soy agar plates at 37 degC for 18 hrs by broth microdilution assay; assay type: functional
[23] = test system: Staphylococcus epidermidis; experiment: Antibacterial activity against methicillin resistant Staphylococcus epidermidis NRS101 assessed as reduction in bacterial cell growth incubated for 18 to 20 hrs by broth microdilution method; assay type: functional
[24] = test system: Escherichia coli; experiment: Bactericidal activity against Escherichia coli JW55031 harboring deltatolC mutant assessed as reduction in bacterial cell growth incubated for 18 to 20 hrs followed by re-plating on tryptic soy agar plates at 37 degC for 18 hrs by broth microdilution assay; assay type: functional
[25] = test system: Staphylococcus aureus; experiment: Antibacterial activity against vancomycin resistant Staphylococcus aureus VRS10 assessed as reduction in bacterial cell growth incubated for 18 to 20 hrs by broth microdilution method; assay type: functional
[26] = test system: Acinetobacter baumannii; experiment: Bactericidal activity against Acinetobacter baumannii ATCC 19606 assessed as reduction in bacterial cell growth incubated for 18 to 20 hrs followed by re-plating on tryptic soy agar plates at 37 degC for 18 hrs by broth microdilution assay; assay type: functional
[27] = test system: Streptococcus pneumoniae; experiment: Antibacterial activity against Methicillin resistant Streptococcus pneumoniae ATCC 700677 assessed as reduction in bacterial cell growth incubated for 18 to 20 hrs by broth microdilution method; assay type: functional
[28] = test system: Pseudomonas aeruginosa; experiment: Antibacterial activity against Pseudomonas aeruginosa ATCC 15442 assessed as reduction in bacterial cell growth incubated for 18 to 20 hrs by broth microdilution method; assay type: functional
[29] = test system: Escherichia coli; experiment: BActericidal activity against Escherichia coli BW25113 assessed as reduction in bacterial cell growth incubated for 18 to 20 hrs followed by re-plating on tryptic soy agar plates at 37 degC for 18 hrs by broth microdilution assay; assay type: functional
[30] = test system: Staphylococcus aureus; experiment: Antibacterial activity against vancomycin resistant Staphylococcus aureus VRS11a assessed as reduction in bacterial cell growth incubated for 18 to 20 hrs by broth microdilution method; assay type: functional
[31] = test system: Enterococcus faecium; experiment: Bactericidal activity against vancomycin resistant Enterococcus faecium ATCC 700221 assessed as reduction in bacterial cell growth incubated for 18 to 20 hrs followed by re-plating on tryptic soy agar plates at 37 degC for 18 hrs by broth microdilution assay; assay type: functional
[32] = test system: Staphylococcus aureus; experiment: Bactericidal activity against methicillin resistant Staphylococcus aureus NRS119 assessed as reduction in bacterial cell growth incubated for 18 to 20 hrs followed by re-plating on tryptic soy agar plates at 37 degC for 18 hrs by broth microdilution assay; assay type: functional
[33] = test system: Staphylococcus aureus; experiment: Antibacterial activity against vancomycin resistant Staphylococcus aureus VRS12 assessed as reduction in bacterial cell growth incubated for 18 to 20 hrs by broth microdilution method; assay type: functional
[34] = test system: Staphylococcus aureus; experiment: Antibacterial activity against methicillin-resistant Staphylococcus aureus USA300 assessed as reduction in bacterial cell growth incubated for 18 to 20 hrs by broth microdilution method; assay type: functional

SMILES | MBC [1] | MBC [2] | MIC [3] | MBC [4] | solubility kinetic at 2 h [6] | MIC [7] | MBC [8] | MBC [9] | MIC [10] | MIC [11] | MBC [12] | MBC [13] | MBC [14] | MIC [15] | MIC [16] | MIC [17] | MIC [18] | MIC [19] | MBC [20] | MIC [21] | also measured
C/C(=N\NC(=N)N)c1sc(-c2ccc(C#CC3(O)CCCCC3)cc2)nc1C | 8 µg/mL (≈ 20.2 µM) | 8 µg/mL (≈ 20.2 µM) | 4 µg/mL (≈ 10.1 µM) | 4 µg/mL (≈ 10.1 µM) | 147 µM (≈ 58.1 µg/mL) | 4 µg/mL (≈ 10.1 µM) | > 64 µg/mL | 16 µg/mL (≈ 40.5 µM) | 8 µg/mL (≈ 20.2 µM) | > 64 µg/mL | 8 µg/mL (≈ 20.2 µM) | 16 µg/mL (≈ 40.5 µM) | > 64 µg/mL | 2 µg/mL (≈ 5.06 µM) | 64 µg/mL (≈ 162 µM) | 2 µg/mL (≈ 5.06 µM) | 8 µg/mL (≈ 20.2 µM) | > 64 µg/mL | 8 µg/mL (≈ 20.2 µM) | 32 µg/mL (≈ 80.9 µM) | Activity call [5]: Active; MBC [22]: 8 µg/mL (≈ 20.2 µM); MIC [23]: 4 µg/mL (≈ 10.1 µM); MBC [24]: 32 µg/mL (≈ 80.9 µM); MIC [25]: 2 µg/mL (≈ 5.06 µM); MBC [26]: 64 µg/mL (≈ 162 µM); MIC [27]: 4 µg/mL (≈ 10.1 µM); MIC [28]: > 64 µg/mL; MBC [29]: > 64 µg/mL; MIC [30]: 1 µg/mL (≈ 2.53 µM); MBC [31]: 1 µg/mL (≈ 2.53 µM); MBC [32]: 4 µg/mL (≈ 10.1 µM); MIC [33]: 4 µg/mL (≈ 10.1 µM); MIC [34]: 4 µg/mL (≈ 10.1 µM)
C/C(=N\NC(=N)N)c1sc(-c2ccc(C#Cc3ccc(C)s3)cc2)nc1C | 32 µg/mL (≈ 81.3 µM) | 4 µg/mL (≈ 10.2 µM) | 2 µg/mL (≈ 5.08 µM) | 4 µg/mL (≈ 10.2 µM) | 12 µM (≈ 4.72 µg/mL) | 8 µg/mL (≈ 20.3 µM) | 64 µg/mL (≈ 163 µM) | 64 µg/mL (≈ 163 µM) | 16 µg/mL (≈ 40.7 µM) | 32 µg/mL (≈ 81.3 µM) | 32 µg/mL (≈ 81.3 µM) | 16 µg/mL (≈ 40.7 µM) | > 64 µg/mL | 4 µg/mL (≈ 10.2 µM) | 32 µg/mL (≈ 81.3 µM) | 4 µg/mL (≈ 10.2 µM) | 8 µg/mL (≈ 20.3 µM) | 64 µg/mL (≈ 163 µM) | 8 µg/mL (≈ 20.3 µM) | 32 µg/mL (≈ 81.3 µM) | Activity [5]: 0.21 log10CFU; MBC [22]: 8 µg/mL (≈ 20.3 µM); MIC [23]: 4 µg/mL (≈ 10.2 µM); MBC [24]: 64 µg/mL (≈ 163 µM); MIC [25]: 4 µg/mL (≈ 10.2 µM); MBC [26]: 64 µg/mL (≈ 163 µM); MIC [27]: 8 µg/mL (≈ 20.3 µM); MIC [28]: > 64 µg/mL; MBC [29]: > 64 µg/mL; MIC [30]: 4 µg/mL (≈ 10.2 µM); MBC [31]: 4 µg/mL (≈ 10.2 µM); MBC [32]: 4 µg/mL (≈ 10.2 µM); MIC [33]: 8 µg/mL (≈ 20.3 µM); MIC [34]: 8 µg/mL (≈ 20.3 µM)
